# Assay results reported in PubChem BioAssay (NCI).
#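 How tested: cells in 96-well plates exposed to compound for 48 hours at five concentrations. GI50 = concentration required for 50% inhibition of growth. TGI denotes the concentration required for complete inhibition of growth.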
# Key:
# Experiment in all cases: inhibition of tumour cell growth, NCI panel, 48 h
# SF-268 CNS = system: SF-268 CNS
# HCC-2998 colon = system: HCC-2998 colon
# NCI-H23 lung = system: NCI-H23 lung
# MOLT-4 leukemia = system: MOLT-4 leukemia
# SN12C renal = system: SN12C renal
# COLO 205 colon = system: COLO 205 colon
# PC-3 prostate = system: PC-3 prostate
# ACHN renal = system: ACHN renal
# A498 renal = system: A498 renal
# NCI-H226 lung = system: NCI-H226 lung
# A549 NSCLC = system: A549 NSCLC
# SK-MEL-28 melanoma = system: SK-MEL-28 melanoma
# SK-MEL-2 melanoma = system: SK-MEL-2 melanoma
# CAKI-1 renal = system: CAKI-1 renal
# OVCAR-4 ovarian = system: OVCAR-4 ovarian
# OVCAR-3 ovarian = system: OVCAR-3 ovarian
# HT29 colon = system: HT29 colon
# HOP-92 NSCLC = system: HOP-92 NSCLC
# U251 CNS = system: U251 CNS
# RXF 393 renal = system: RXF 393 renal
# MCF7 breast = system: MCF7 breast
# NCI-H460 lung = system: NCI-H460 lung
# DU-145 prostate = system: DU-145 prostate
# HS 578T breast = system: HS 578T breast
# CCRF-CEM leukemia = system: CCRF-CEM leukemia
# EKVX NSCLC = system: EKVX NSCLC
# NCI-H522 lung = system: NCI-H522 lung
# T-47D breast = system: T-47D breast
# MDA-MB-468 breast = system: MDA-MB-468 breast
# RPMI-8226 leukemia = system: RPMI-8226 leukemia
# HCT-15 colon = system: HCT-15 colon
# SNB-75 CNS = system: SNB-75 CNS
# MALME-3M melanoma = system: MALME-3M melanoma
# SF-295 CNS = system: SF-295 CNS
# BT-549 breast = system: BT-549 breast
# SF-539 CNS = system: SF-539 CNS
# K-562 leukemia = system: K-562 leukemia
# KM12 colon = system: KM12 colon
# UO-31 renal = system: UO-31 renal
# HL-60(TB) leukemia = system: HL-60(TB) leukemia
# OVCAR-5 ovarian = system: OVCAR-5 ovarian
# UACC-62 melanoma = system: UACC-62 melanoma
# HCT-116 colon = system: HCT-116 colon
# SNB-19 CNS = system: SNB-19 CNS
# SR leukemia = system: SR leukemia
# LOX IMVI melanoma = system: LOX IMVI melanoma
# 786-0 renal = system: 786-0 renal
# OVCAR-8 ovarian = system: OVCAR-8 ovarian
# M14 melanoma = system: M14 melanoma
# MDA-MB-231 breast = system: MDA-MB-231 breast
# SK-OV-3 ovarian = system: SK-OV-3 ovarian
# MDA-MB-435 = system: MDA-MB-435
# HOP-62 NSCLC = system: HOP-62 NSCLC
# TK-10 renal = system: TK-10 renal
# IGROV1 ovarian = system: IGROV1 ovarian
# SK-MEL-5 melanoma = system: SK-MEL-5 melanoma
# UACC-257 melanoma = system: UACC-257 melanoma
# SW-620 colon = system: SW-620 colon
smiles,measurement,setting,value
O=C1NC(=NC2CCCCCC2)N/C1=C\c1ccc2ncoc2c1,GI50,SF-268 CNS,5.61 µM
same,TGI,SF-268 CNS,38.8 µM
same,GI50,HCC-2998 colon,12.3 µM
same,TGI,HCC-2998 colon,27.6 µM
same,GI50,NCI-H23 lung,3.16 µM
same,TGI,NCI-H23 lung,18.7 µM
same,GI50,MOLT-4 leukemia,3.51 µM
same,TGI,MOLT-4 leukemia,22 µM
same,GI50,SN12C renal,2.89 µM
same,TGI,SN12C renal,18.1 µM
same,GI50,COLO 205 colon,3.14 µM
same,TGI,COLO 205 colon,14.2 µM
same,GI50,PC-3 prostate,8.53 µM
same,TGI,PC-3 prostate,60.6 µM
same,GI50,ACHN renal,2.68 µM
same,TGI,ACHN renal,10.1 µM
same,GI50,A498 renal,2.09 µM
same,TGI,A498 renal,8.84 µM
same,GI50,NCI-H226 lung,2.63 µM
same,TGI,NCI-H226 lung,> 100 µM
same,GI50,A549 NSCLC,3.01 µM
same,TGI,A549 NSCLC,32.1 µM
same,GI50,SK-MEL-28 melanoma,3.5 µM
same,TGI,SK-MEL-28 melanoma,14.1 µM
same,GI50,SK-MEL-2 melanoma,2.86 µM
same,TGI,SK-MEL-2 melanoma,9.46 µM
same,GI50,CAKI-1 renal,2.61 µM
same,TGI,CAKI-1 renal,12.9 µM
same,GI50,OVCAR-4 ovarian,12.4 µM
same,TGI,OVCAR-4 ovarian,53.4 µM
same,GI50,OVCAR-3 ovarian,2.13 µM
same,TGI,OVCAR-3 ovarian,9.17 µM
same,GI50,HT29 colon,9.36 µM
same,TGI,HT29 colon,37.8 µM
same,GI50,HOP-92 NSCLC,6.58 µM
same,TGI,HOP-92 NSCLC,58.6 µM
same,GI50,U251 CNS,3.54 µM
same,TGI,U251 CNS,68.9 µM
same,GI50,RXF 393 renal,2.02 µM
same,TGI,RXF 393 renal,5.32 µM
same,GI50,MCF7 breast,3.58 µM
same,TGI,MCF7 breast,30.2 µM
same,GI50,NCI-H460 lung,4.08 µM
same,TGI,NCI-H460 lung,15.6 µM
same,GI50,DU-145 prostate,4.02 µM
same,TGI,DU-145 prostate,17.1 µM
same,GI50,HS 578T breast,2.87 µM
same,TGI,HS 578T breast,26.5 µM
same,GI50,CCRF-CEM leukemia,2.87 µM
same,TGI,CCRF-CEM leukemia,16.2 µM
same,GI50,EKVX NSCLC,8.68 µM
same,TGI,EKVX NSCLC,49.4 µM
same,GI50,NCI-H522 lung,1.27 µM
same,TGI,NCI-H522 lung,15 µM
same,GI50,T-47D breast,2.87 µM
same,TGI,T-47D breast,63.2 µM
same,GI50,MDA-MB-468 breast,2.44 µM
same,TGI,MDA-MB-468 breast,12.6 µM
same,GI50,RPMI-8226 leukemia,5.22 µM
same,TGI,RPMI-8226 leukemia,31.7 µM
same,GI50,HCT-15 colon,3.41 µM
same,TGI,HCT-15 colon,26.4 µM
same,GI50,SNB-75 CNS,0.757 µM
same,TGI,SNB-75 CNS,12.3 µM
same,GI50,MALME-3M melanoma,10.5 µM
same,TGI,MALME-3M melanoma,24.4 µM
same,GI50,SF-295 CNS,7.52 µM
same,TGI,SF-295 CNS,> 100 µM
same,GI50,BT-549 breast,1.94 µM
same,TGI,BT-549 breast,12.3 µM
same,GI50,SF-539 CNS,1.01 µM
same,TGI,SF-539 CNS,5.75 µM
same,GI50,K-562 leukemia,4.97 µM
same,TGI,K-562 leukemia,37.2 µM
same,GI50,KM12 colon,3.83 µM
same,TGI,KM12 colon,19.1 µM
same,GI50,UO-31 renal,3.31 µM
same,TGI,UO-31 renal,9.46 µM
same,GI50,HL-60(TB) leukemia,3.69 µM
same,TGI,HL-60(TB) leukemia,19.3 µM
same,GI50,OVCAR-5 ovarian,4.33 µM
same,TGI,OVCAR-5 ovarian,68.4 µM
same,GI50,UACC-62 melanoma,2.74 µM
same,TGI,UACC-62 melanoma,12 µM
same,GI50,HCT-116 colon,1.92 µM
same,TGI,HCT-116 colon,10.9 µM
same,GI50,SNB-19 CNS,2.43 µM
same,TGI,SNB-19 CNS,44.6 µM
same,GI50,SR leukemia,1.97 µM
same,TGI,SR leukemia,8.09 µM
same,GI50,LOX IMVI melanoma,4.33 µM
same,TGI,LOX IMVI melanoma,20.9 µM
same,GI50,786-0 renal,5.02 µM
same,TGI,786-0 renal,47 µM
same,GI50,OVCAR-8 ovarian,3.55 µM
same,TGI,OVCAR-8 ovarian,18 µM
same,GI50,M14 melanoma,8.62 µM
same,TGI,M14 melanoma,25.2 µM
same,GI50,MDA-MB-231 breast,11.3 µM
same,TGI,MDA-MB-231 breast,58.4 µM
same,GI50,SK-OV-3 ovarian,2.71 µM
same,TGI,SK-OV-3 ovarian,62.9 µM
same,GI50,MDA-MB-435,6.27 µM
same,TGI,MDA-MB-435,21.4 µM
same,GI50,HOP-62 NSCLC,3.3 µM
same,TGI,HOP-62 NSCLC,45.6 µM
same,GI50,TK-10 renal,3.86 µM
same,TGI,TK-10 renal,> 100 µM
same,GI50,IGROV1 ovarian,4.35 µM
same,TGI,IGROV1 ovarian,34.1 µM
same,GI50,SK-MEL-5 melanoma,3.66 µM
same,TGI,SK-MEL-5 melanoma,14.8 µM
same,GI50,UACC-257 melanoma,5.95 µM
same,TGI,UACC-257 melanoma,23 µM
same,GI50,SW-620 colon,3.27 µM
same,TGI,SW-620 colon,18.9 µM
